Here are results for 5 molecules from US20250034216A1, “STEREOSELECTIVE COVALENT LIGANDS FOR ONCOGENIC AND IMMUNOLOGICAL PROTEINS” (The Scripps Research Institute, priority 2021, published 2025).

Holding throughout (assay): IA-DTB cysteine engagement
What all share (type): binding

The target in assay [1] is T1, CDKAL1_C556 (Homo sapiens, UniProt Q5VV42).
T1 construct: endogenous in cells; host or cells: 22Rv1
T1 sequence (Q5VV42 1-579): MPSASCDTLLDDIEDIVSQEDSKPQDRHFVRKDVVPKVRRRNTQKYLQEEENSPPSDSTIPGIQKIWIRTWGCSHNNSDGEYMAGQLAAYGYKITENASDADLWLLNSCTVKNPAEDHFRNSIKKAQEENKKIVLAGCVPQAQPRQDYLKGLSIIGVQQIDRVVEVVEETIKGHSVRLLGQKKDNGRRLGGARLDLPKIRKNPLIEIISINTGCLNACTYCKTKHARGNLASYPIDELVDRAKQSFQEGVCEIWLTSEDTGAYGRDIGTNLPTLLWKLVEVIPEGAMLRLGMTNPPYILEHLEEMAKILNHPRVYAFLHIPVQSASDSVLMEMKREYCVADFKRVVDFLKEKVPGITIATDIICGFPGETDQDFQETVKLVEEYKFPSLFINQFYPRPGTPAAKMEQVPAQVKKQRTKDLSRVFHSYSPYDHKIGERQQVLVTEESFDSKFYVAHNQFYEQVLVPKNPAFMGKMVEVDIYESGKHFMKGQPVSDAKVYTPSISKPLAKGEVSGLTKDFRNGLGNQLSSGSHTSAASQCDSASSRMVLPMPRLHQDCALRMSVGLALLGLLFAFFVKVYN
The settings on record: 22Rv1 cells, relative to DMSO; for % engagement CDKAL1_556: 5 μM probe, 1 h (FIG. 5B); for % engagement CDKAL1_C556: 20 μM probe, 1 h. In a few lines:
(§1)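 Read-out is TMT-based cysteine engagement, expressed as each reporter ion intensity divided by the average of the DMSO channels. Before that, probe-treated cell lysates were capped with IA-DTB, digested, enriched on streptavidin and TMT-tagged. PSMs with DMSO summed intensity <10,000 or DMSO CV >0.5 were excluded.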

The target of assay [2] is T2, CBX1_C60 (Homo sapiens, UniProt P83916).
T2 construct: endogenous in cells; host or cells: 22Rv1
Particulars: 22Rv1 cells, 20 μM probe, 1 h, relative to DMSO. In a few lines: as §1

Assay [3] deals with T3, ABCB8_C454 (Homo sapiens, UniProt Q9NUT2).
T3 construct: endogenous in cells; host or cells: 22Rv1
T3 sequence (Q9NUT2 26-735): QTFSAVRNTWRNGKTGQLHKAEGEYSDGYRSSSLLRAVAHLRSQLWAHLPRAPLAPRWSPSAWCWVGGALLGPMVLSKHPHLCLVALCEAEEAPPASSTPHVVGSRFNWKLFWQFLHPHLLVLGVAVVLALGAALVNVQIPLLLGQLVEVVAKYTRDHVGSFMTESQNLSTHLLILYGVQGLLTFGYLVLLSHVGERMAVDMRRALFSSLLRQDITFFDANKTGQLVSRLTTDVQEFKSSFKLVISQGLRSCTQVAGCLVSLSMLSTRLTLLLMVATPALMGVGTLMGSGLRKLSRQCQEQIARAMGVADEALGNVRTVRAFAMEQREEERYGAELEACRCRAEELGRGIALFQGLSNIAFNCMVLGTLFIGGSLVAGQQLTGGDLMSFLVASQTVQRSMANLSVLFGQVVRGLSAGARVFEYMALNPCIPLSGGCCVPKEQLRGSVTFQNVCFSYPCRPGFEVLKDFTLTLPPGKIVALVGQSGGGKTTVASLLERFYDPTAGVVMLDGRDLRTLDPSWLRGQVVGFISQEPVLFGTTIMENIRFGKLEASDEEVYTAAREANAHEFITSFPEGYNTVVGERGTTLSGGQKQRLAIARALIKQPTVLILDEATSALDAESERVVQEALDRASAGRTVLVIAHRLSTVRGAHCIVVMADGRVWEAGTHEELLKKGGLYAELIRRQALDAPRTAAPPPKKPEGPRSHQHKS
Particulars: 22Rv1 cells, 20 μM probe, 1 h, relative to DMSO. A digest of the protocol:
as §1

Assay [4] deals with T4, TMEM256-PLSCR3_C126 (Homo sapiens, UniProt Q9NRY6).
T4 construct: endogenous in cells; host or cells: 22Rv1
The settings on record: 22Rv1 cells, 20 μM probe, 1 h, relative to DMSO. In a few lines: as §1

T2 sequence (P83916 whole entry): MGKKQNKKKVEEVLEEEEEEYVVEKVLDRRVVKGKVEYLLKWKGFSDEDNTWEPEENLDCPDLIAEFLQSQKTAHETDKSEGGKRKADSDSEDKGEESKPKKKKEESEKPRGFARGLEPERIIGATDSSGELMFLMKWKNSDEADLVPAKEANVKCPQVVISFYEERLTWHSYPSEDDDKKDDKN
T4 sequence (Q9NRY6 whole entry): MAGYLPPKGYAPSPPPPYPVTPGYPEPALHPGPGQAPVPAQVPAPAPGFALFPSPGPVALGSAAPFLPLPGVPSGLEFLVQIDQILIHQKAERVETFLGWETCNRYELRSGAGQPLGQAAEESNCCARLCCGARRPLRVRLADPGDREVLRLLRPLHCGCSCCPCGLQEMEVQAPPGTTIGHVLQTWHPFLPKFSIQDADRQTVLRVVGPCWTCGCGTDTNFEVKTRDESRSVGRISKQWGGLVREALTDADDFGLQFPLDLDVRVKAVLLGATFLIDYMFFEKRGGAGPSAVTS

Take `CC#CC(=O)N1C[C@H](c2ccc(Br)cc2)[C@@H]1C(=O)Nc1cccc2cccnc12` [MY-45B, (2R,3S)-3-(4-bromophenyl)-1-(but-2-ynoyl)-N-(quinolin-8-yl)azetidine-2-carboxamide]: the “% engagement CDKAL1_556” value in assay [1] is given as 67.00%.
`C=CC(=O)N1C[C@H](c2ccc(Br)cc2)[C@H]1C(=O)Nc1cccc2cccnc12` [MY-3A, (2S,3S)-1-acryloyl-3-(4-bromophenyl)-N-(quinolin-8-yl)azetidine-2-carboxamide]: the “% engagement CBX1_C60” value in assay [2] was 14.5%. Moreover, in assay [1], the “% engagement CDKAL1_C556” value was 88.5%. Also, in assay [3], the “% engagement ABCB8_C454” value is reported as 24%. For the same molecule, the “% engagement TMEM256-PLSCR3_C126” value in assay [4] is recorded as 58%.
For the molecule `C=CC(=O)N1C[C@@H](c2ccc(Br)cc2)[C@H]1C(=O)Nc1cccc2cccnc12` [MY-1A, (2S,3R)-1-acryloyl-3-(4-bromophenyl)-N-(quinolin-8-yl)azetidine-2-carboxamide], the “% engagement CBX1_C60” value in assay [2] is reported as −11.5%. For the same molecule, the “% engagement CDKAL1_C556” value in assay [1] is reported as 59.5%. Moreover, the “% engagement ABCB8_C454” value in assay [3] is −1.25%. Moreover, the “% engagement TMEM256-PLSCR3_C126” value in assay [4] came to 81%.
In the case of `C=CC(=O)N1C[C@H](c2ccc(Br)cc2)[C@@H]1C(=O)Nc1cccc2cccnc12` [MY-1B, (2R,3S)-1-acryloyl-3-(4-bromophenyl)-N-(quinolin-8-yl)azetidine-2-carboxamide], the “% engagement CBX1_C60” value in assay [2] is reported as −14.5%. Besides, in assay [1], the “% engagement CDKAL1_556” value was found to be 79.33% and the “% engagement CDKAL1_C556” value came out at 91%. In addition, the “% engagement ABCB8_C454” value in assay [3] turned out to be 14%. The “% engagement TMEM256-PLSCR3_C126” value in assay [4] is on record as 86%.
Regarding `C=CC(=O)N1C[C@H](c2ccc(Br)cc2)[C@H]1C(=O)Nc1cccc2cccnc12` [MY-3B, (2S,3S)-1-acryloyl-3-(4-bromophenyl)-N-(quinolin-8-yl)azetidine-2-carboxamide], the “% engagement CBX1_C60” value in assay [2] was found to be 75%. In assay [1], the “% engagement CDKAL1_C556” value was 89%. Further, the “% engagement ABCB8_C454” value in assay [3] is 67%. Besides, the “% engagement TMEM256-PLSCR3_C126” value in assay [4] turned out to be 66%.
